Laboratory results from patent publication US20160355530A1, “HEPATITIS C INHIBITORS AND USES THEREOF” (AbbVie Inc., priority 2010, published 2016).
Where two headings read alike, the source gives them in different places.

Assays:
[1] = test system: chimeric replicon with genotype 3a NS5B; assay: microbe, parasite or virus in culture; type: cell-based, HCV genotype 3a; details: Hepatitis C virus, read-out: 3a chimera 5% FBS EC50
[2] = test system: HCV NS5B polymerase 1a-H77-C316Y; assay: biochemical; design: species or system HCV genotype 1a; details: ratio of enzyme IC50s, 1a H77-C316Y / 1a H77
Method in brief: (§1)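 Incorporation of [3H]UTP (0.284 μM), alongside 20 μM each CTP and ATP, into RNA copied from a 5 nM 2.1 kb genotype 1b negative-strand template was measured after 3 h at 30° C using purified His-tagged NS5B truncated at residue 570. Product was spermine-precipitated, filtered and scintillation-counted; nonlinear regression gave IC50.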

[3] = biological target: T1, HCV NS5B polymerase 1a-H77 (Hepatitis C virus genotype 1a, UniProt P27958); assay: biochemical; design: species or system HCV genotype 1a; details: enzyme, strain 1a H77; read-out: HCV Polymerase Strain 1a H77 IC50
T1 construct: six-histidine tag; made in house; host or cells: E. coli
Method in brief: as §1

[4] = biological target: T2, HCV NS5B polymerase 1a-H77-C316Y (Hepatitis C virus genotype 1a, UniProt P27958, C2736Y); assay: biochemical; design: species or system HCV genotype 1a
T2 construct: six-histidine tag; made in house; host or cells: E. coli
Method in brief: as §1

[5] = test system: chimeric replicon with genotype 2b NS5B; assay: microbe, parasite or virus in culture; type: cell-based, HCV genotype 2b; details: Hepatitis C virus, read-out: 2b chimera 5% FBS EC50
[6] = test system: HCV 1a-H77-C316Y transient subgenomic replicon in Huh-7 derived cell line; assay: microbe, parasite or virus in culture; type: cell-based, HCV genotype 1a; details: for EC50: Hepatitis C virus, Huh-7, read-out: Transient Replicon 1a H77-C316Y 5% FBS EC50; for Transient Replicon Fold Resistance C316Y/1a: ratio of transient replicon EC50s, C316Y / 1a H77
Method in brief: (§2)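 Subgenomic replicon RNA (no Neo gene) electroporated into Huh-7-derived cells, plated at 5×10^3 cells/well; a 4 h plate gauged transfection efficiency. Cells exposed to 3-fold compound dilutions (0.5% DMSO) for 4 days at 37° C, then lysed for luciferase readout; EC50 calculated.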

[7] = test system: HCV 1a-H77 transient subgenomic replicon in Huh-7 derived cell line; assay: microbe, parasite or virus in culture; type: cell-based, HCV genotype 1a; details: Hepatitis C virus, Huh-7; transient replicon, 5% FBS; read-out: Transient Replicon 1a H77 5% FBS EC50
Method in brief: as §2

[8] = test system: HCV 1a-H77 subgenomic replicon; assay: microbe, parasite or virus in culture; type: cell-based, HCV genotype 1a; details: Hepatitis C virus, stable replicon
[9] = biological target: T3, HCV NS5B polymerase 1b BK strain (Hepatitis C virus genotype 1b, UniProt P26663); assay: HCV NS5B polymerase enzymatic inhibition assay, strain 1b BK; type: biochemical; details: enzyme, strain 1b BK; read-out: HCV Polymerase Strain 1b BK IC50
T3 construct: six-histidine tag; made in house; host or cells: E. coli
Method in brief: as §1

[10] = test system: chimeric replicon with genotype 4a NS5B; assay: microbe, parasite or virus in culture; type: cell-based, HCV genotype 4a; details: Hepatitis C virus, read-out: 4a chimera 5% FBS EC50
[11] = test system: chimeric replicon with 2a-J6CF-derived NS5B; assay: microbe, parasite or virus in culture; type: cell-based, HCV genotype 2a; details: Hepatitis C virus, read-out: 2a chimera 5% FBS EC50
[12] = test system: HCV 1b-BB7 subgenomic replicon; assay: microbe, parasite or virus in culture; type: cell-based, HCV genotype 1b; details: Hepatitis C virus, stable replicon
[13] = 5% FBS, absence of human plasma, read-out: Stable Replicon 1a H77 5% FBS EC50
[14] = strain 1a H77, 5% FBS + 40% human plasma, read-out: 1a H77 5% FBS + 40% Human Plasma EC50
[15] = strain 1a H77, 5% FBS, no human plasma, read-out: 1a H77 5% FBS EC50
[16] = strain 1a H77, 5% FBS, read-out: 1a H77 5% FBS EC50
[17] = strain 1b BB7, 5% FBS + 40% human plasma, read-out: 1b BB7 5% FBS + 40% Human Plasma EC50
[18] = strain 1b BB7, 5% FBS, no human plasma, read-out: 1b BB7 5% FBS EC50
[19] = strain 1b BB7, 5% FBS, read-out: 1b BB7 5% FBS EC50

T2 sequence (P27958 2421-2990 C2736Y): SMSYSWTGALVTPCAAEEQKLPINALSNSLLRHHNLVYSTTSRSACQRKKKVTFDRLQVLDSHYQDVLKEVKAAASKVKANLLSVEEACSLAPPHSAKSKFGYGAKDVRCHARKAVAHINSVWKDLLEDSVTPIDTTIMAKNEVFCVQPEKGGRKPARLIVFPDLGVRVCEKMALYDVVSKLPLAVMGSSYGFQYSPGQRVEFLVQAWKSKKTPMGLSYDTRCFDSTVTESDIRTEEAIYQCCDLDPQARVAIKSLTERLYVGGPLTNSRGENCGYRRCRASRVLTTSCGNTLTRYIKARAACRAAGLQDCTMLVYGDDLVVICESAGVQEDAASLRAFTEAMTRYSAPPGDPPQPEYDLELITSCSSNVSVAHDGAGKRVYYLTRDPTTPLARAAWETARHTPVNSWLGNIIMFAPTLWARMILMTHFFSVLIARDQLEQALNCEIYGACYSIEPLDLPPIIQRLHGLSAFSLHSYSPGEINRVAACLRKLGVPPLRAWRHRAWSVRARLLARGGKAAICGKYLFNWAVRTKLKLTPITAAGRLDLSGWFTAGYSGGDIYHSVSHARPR
T3 sequence (P26663 2420-2989): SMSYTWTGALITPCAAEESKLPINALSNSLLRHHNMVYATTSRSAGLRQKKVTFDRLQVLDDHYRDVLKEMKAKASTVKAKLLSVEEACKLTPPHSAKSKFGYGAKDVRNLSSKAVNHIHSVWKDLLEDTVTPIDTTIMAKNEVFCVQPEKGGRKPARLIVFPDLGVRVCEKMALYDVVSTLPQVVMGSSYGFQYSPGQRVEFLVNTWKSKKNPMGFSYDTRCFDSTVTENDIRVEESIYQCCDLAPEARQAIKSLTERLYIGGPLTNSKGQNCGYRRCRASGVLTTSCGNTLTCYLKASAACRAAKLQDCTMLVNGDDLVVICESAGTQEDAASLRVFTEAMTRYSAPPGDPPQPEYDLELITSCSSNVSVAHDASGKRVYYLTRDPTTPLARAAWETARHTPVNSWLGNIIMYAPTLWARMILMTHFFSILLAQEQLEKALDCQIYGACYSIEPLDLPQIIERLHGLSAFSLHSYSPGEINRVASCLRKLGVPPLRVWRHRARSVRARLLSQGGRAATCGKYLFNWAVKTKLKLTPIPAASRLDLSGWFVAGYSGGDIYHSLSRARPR
T1 sequence (P27958 2421-2990): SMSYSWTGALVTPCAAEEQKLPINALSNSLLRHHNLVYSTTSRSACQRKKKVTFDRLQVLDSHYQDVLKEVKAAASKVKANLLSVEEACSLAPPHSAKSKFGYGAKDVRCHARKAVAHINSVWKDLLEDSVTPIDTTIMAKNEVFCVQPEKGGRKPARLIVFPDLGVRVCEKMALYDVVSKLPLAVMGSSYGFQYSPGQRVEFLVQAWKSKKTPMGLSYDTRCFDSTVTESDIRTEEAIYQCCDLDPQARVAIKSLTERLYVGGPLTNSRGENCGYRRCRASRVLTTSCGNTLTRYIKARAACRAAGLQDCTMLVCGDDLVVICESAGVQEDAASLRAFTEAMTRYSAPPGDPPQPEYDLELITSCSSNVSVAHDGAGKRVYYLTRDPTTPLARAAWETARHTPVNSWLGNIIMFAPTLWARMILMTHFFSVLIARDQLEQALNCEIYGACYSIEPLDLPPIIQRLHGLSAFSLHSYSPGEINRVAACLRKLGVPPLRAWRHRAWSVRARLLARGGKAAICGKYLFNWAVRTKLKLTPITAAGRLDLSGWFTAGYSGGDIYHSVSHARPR

Structure (SMILES)	EC50 [1] [nM]	C316Y/1a Fold Resistance [2] [fold]	IC50 [3] [nM]	IC50 [4] [nM]	EC50 [5] [nM]	EC50 [6] [nM]	Transient Replicon Fold Resistance C316Y/1a [6] [fold]	EC50 [7] [nM]	EC50 [8, 13] [nM]	EC50 [8, 14] [nM]	EC50 [8, 15] [nM]	EC50 [8, 16] [nM]	IC50 [9] [nM]	EC50 [10] [nM]	EC50 [11] [nM]	EC50 [12, 17] [nM]	EC50 [12, 18] [nM]	EC50 [12, 19] [nM]
CS(=O)(=O)N(CCCC(=O)O)c1cc2oc(-c3ccc(F)cc3)c(C3=NOCN3)c2cc1C1CC1 [Example 157, 4-{[5-cyclopropyl-3-(4,5-dihydro-1,2,4-oxadiazol-3-yl)-2-(4-fluorophenyl)-1-benzofuran-6-yl](methylsulfonyl)amino}butanoic acid]	108	11	5	54	1000	6890	62	111	109	2790	109	109	16	> 1000	1000	2460	94.2	94.2
Cc1cnc(-c2c(-c3ccc(F)cc3)oc3cc(N(CCC(C)C)S(C)(=O)=O)c(C4CC4)cc23)[nH]1 [Example 172, N-[5-cyclopropyl-2-(4-fluorophenyl)-3-(5-methyl-1H-imidazol-2-yl)-1-benzofuran-6-yl]-N-(3-methylbutyl)methanesulfonamide]	233	7	13.3	87	1000	103	3	40.4	67.4	1220	67.4	67.4	179	> 1000	1000	1130	111	111
CS(=O)(=O)Nc1cc2oc(-c3ccc(F)cc3)c(C3=NOCN3)c2cc1C1CC1 [Example 173, N-[5-cyclopropyl-3-(4,5-dihydro-1,2,4-oxadiazol-3-yl)-2-(4-fluorophenyl)-1-benzofuran-6-yl]methanesulfonamide]	146	198	7.1	1400	1000	10000	10	1000	809	9720	809	809	86	> 1000	1000	5060	301	301
Cc1c[nH]c(-c2c(-c3ccc(F)cc3)oc3cc(N(CCCCO)S(C)(=O)=O)c(C4CC4)cc23)n1 [Example 187, N-[5-cyclopropyl-2-(4-fluorophenyl)-3-(4-methyl-1H-imidazol-2-yl)-1-benzofuran-6-yl]-N-(4-hydroxybutyl)methanesulfonamide]	91.7	6	25.8	159	1000	128	4	28.9	41.9	409	41.9	41.9	168	> 1000	703	244	63.2	63.2
Cc1c[nH]c(-c2c(-c3ccc(F)cc3)oc3cc(N(CCO)S(C)(=O)=O)c(C4CC4)cc23)n1 [Example 189, N-[5-cyclopropyl-2-(4-fluorophenyl)-3-(4-methyl-1H-imidazol-2-yl)-1-benzofuran-6-yl]-N-(2-hydroxyethyl)methanesulfonamide]	231	18	25.5	461	1860	326	2	139	163	774	163	163	470	2940	1050	445	114	114
